Measurements as given in ChEMBL document CHEMBL5120940, “Indolactam Dipeptides as Nanomolar Gli Inhibitors” (ACS Med Chem Lett, 2022).
The source made the active and inactive calls. The rule behind the calls is not given here.

Experiments:
Type in all cases: cell-based
[1] = Inhibition of GLI in SAG induced mouse Shh Light II cells assessed as residual Smo-dependent Gli luciferase activity in starvation medium incubated for 30 hrs by dual luciferase assay
Shh Light II = experiment: Inhibition of GLI in SAG induced mouse Shh Light II cells assessed as residual Smo-dependent Gli luciferase activity in starvation medium at 100 nM incubated for 30 hrs by dual luciferase assay
[2] = Inhibition of GLI in SAG induced mouse C3H10T1/2 cells assessed reduction Gli-dependent differentiation by measuring ALP activity incubated for 48 hrs by chemiluminescence assay; conditions: C3H 10T1/2, 48 h
[3] = Inhibition of GLI in SAG induced mouse Sufu-KO-LIGHT cells assessed as residual Smo-independent Gli luciferase activity in starvation medium incubated for 30 hrs by dual luciferase assay
Sufu-KO-LIGHT = experiment: Inhibition of GLI in SAG induced mouse Sufu-KO-LIGHT cells assessed as residual Smo-independent Gli luciferase activity in starvation medium at 100 nM incubated for 30 hrs by dual luciferase assay
NIH/3T3 = experiment: Inhibition of GLI in mouse NIH/3T3 cells assessed as reduction in CMV-driven firefly luciferase activity in starvation medium at 100 nM incubated for 30 hrs by Bright-Glo luciferase assay
ASZ001 = experiment: Inhibition of GLI in mouse ASZ001 cells assessed as reduction in cell viability in starvation medium at 1.5 uM incubated for 48 hrs by CellTiter assay relative to control
[4] = Inhibition of GLI in mouse ASZ001 cells assessed as reduction in cell viability in starvation medium incubated for 48 hrs by CellTiter assay; conditions: ASZ001, 48 h

Row | SMILES | IC50 [1] [nM] | Activity (Shh Light II) [%] | IC50 [2] [nM] | IC50 [3] [nM] | Activity (Sufu-KO-LIGHT) [%] | Activity (NIH/3T3) | inhibition (ASZ001) [%] | IC50 [4] [nM]
1 | CC(C)[C@H]1C(=O)N[C@@H](CO)Cc2c[nH]c3cccc(c23)N1C | > 5000 | 100 | > 5000 | 1920 | 78 | – | – | –
2 | CC(C)[C@H]1C(=O)N[C@H](CO)Cc2cn(C)c3cccc(c23)N1C | 69 | 66 | 498 | 20 | 42 | Active | – | –
3 | CC(C)[C@H]1C(=O)N[C@H](CO)Cc2cn(C(C)C)c3cccc(c23)N1C | 309 | 96 | – | 464 | 78 | – | – | –
4 | CC(C)[C@H]1C(=O)N[C@H](CO)Cc2c[nH]c3cccc(c23)N1C [INDOLACTUM] | 33 | 68 | 171 | 13 | 39 | Active | 62 | –
5 | CC(C)[C@H]1C(=O)N[C@H](CO)Cc2c[nH]c3c(Br)ccc(c23)N1C | 1280 | 70 | – | 264 | 23 | – | – | –
6 | CCCCCCn1cc2c3c(cccc31)N(C)[C@@H](C(C)C)C(=O)N[C@H](CO)C2 | 113 | 83 | 27 | 7.9 | 25 | Active | 38 | 0.5
7 | CC(=O)n1cc2c3c(cccc31)N(C)[C@@H](C(C)C)C(=O)N[C@H](CO)C2 | 195 | 73 | – | 655 | 67 | – | – | –
8 | COC(=O)[C@@H]1Cc2c[nH]c3cccc(c23)N(C)[C@@H](C(C)C)C(=O)N1 | 3460 | 99 | – | 77 | 67 | – | – | –
9 | CC(C)[C@H]1C(=O)N[C@H](CO)Cc2cc(NC(=O)/C=C/C=C/c3ccc(C(F)(F)F)cc3)ccc2N1C (stereo in doubt) | – | – | – | – | – | – | – | 0.16
10 | COC[C@@H]1Cc2cn(C)c3cccc(c23)N(C)[C@@H](C(C)C)C(=O)N1 | 478 | 86 | – | 1820 | 69 | – | – | –
11 | CS(=O)(=O)c1ccc(C(=O)Nc2ccc(Cl)c(-c3ccccn3)c2)c(Cl)c1 [VISMODEGIB] | 37 | 43 | 58 | > 5000 | 96 | – | – | 2
12 | CCC(C)[C@H]1C(=O)N[C@H](CO)Cc2c[nH]c3cccc(c23)N1C (some centres not stated) | 33 | 53 | 30 | 6.8 | 36 | Active | – | –
13 | C=C[C@@](C)(CCC=C(C)C)c1ccc2c3c(c[nH]c13)C[C@@H](CO)NC(=O)[C@H](C(C)C)N2C | > 5000 | 90 | – | > 5000 | 47 | – | – | –
14 | C=CC(C)(C)c1ccc2c3c(c[nH]c13)C[C@@H](CO)NC(=O)[C@H](C(C)C)N2C [PENDOLMYCIN] | > 5000 | 60 | – | > 5000 | 46 | – | – | –
